Measurements reported in publication PMC6986443, “T‐495, a novel low cooperative M1 receptor positive allosteric modulator, improves memory deficits associated with cholinergic dysfunction and is characterized by low gastrointestinal side effect risk” (Pharmacology Research & Perspectives, 2020).

What was measured:
[1] = target: T1, Nitric oxide synthase, neuronal (nNOS) (Rattus norvegicus, UniProt P29476); assay: Selectivity panel; type: biochemical
T1 construct: purchased Eurofins Panlabs Taiwan Ltd
Source text: The selectivity of T‐495 at 10 μmol/L against a panel of 106 targets, including receptors, enzymes, ion channels, and transporters, was characterized (Eurofins Panlabs Taiwan Ltd., Taipei, Taiwan).

[2] = test system: patients with AD; design: method as in PMID 29955661; details: cited from earlier work

| Compound | inhibition at 10 µM [1] | cognition as adjunctive therapy with AChEIs [2] | patients affected by diarrhea ([2]; estimated effective dose) |
| --- | --- | --- | --- |
| Cc1c(Cc2ccc(Cl)nc2)cc2c(c1Cl)OCN([C@H]1CCC[C@@H]1O)C2=O [T‐495, 8‐chloro‐6‐((6‐chloropyridin‐3‐yl)methyl)‐3‐((1S,2S)‐2‐hydroxycyclopentyl)‐7‐methyl‐2,3‐dihydro‐4H‐1,3‐benzoxazin‐4‐one] | 5% |  |  |
| Cc1ccc(Cc2cc3c(=O)n([C@H]4CCCC[C@@H]4O)cnc3c3ccccc23)cn1 [MK‐7622, 3‐((1S,2S)‐2‐hydroxycyclohexyl)‐6‐((6‐methylpyridin‐3‐yl)methyl)benzo[h]quinazolin‐4(3H)‐one, reference compound] |  | did not improve cognition | 15% |
